{"source": "paper PMC11184611", "about": "“Development of Nontoxic Peptides for Lipopolysaccharide Neutralization and Sepsis Treatment” (ACS Pharmacology & Translational Science, 2024)", "note": "No end group written: not given here.", "data": [{"system": "E. coli (ATCC 25922)", "experiment": "not given", "type": "cell-based", "conditions": "100% inhibition of growth, by eye, after 18–20 h at 37 °C, LB medium, peptide 100–0.78 μM", "experimental": "(§1) The antibacterial activity of the peptides was examined in sterile 96-well plates (Nunc 96-well microtiter plates) in a final volume of 100 μL, as follows. Aliquots (50 μL) of a suspension containing bacteria at a concentration of 10^6 colony-forming units/mL in culture medium (LB medium) were added to 50 μL of peptide serially diluted in culture medium (100–0.78 μM). Inhibition of growth was determined by the eye after an incubation of 18–20 h at 37 °C. Antibacterial activities were expressed as the minimal inhibitory concentration (MIC), the concentration at which 100% inhibition of growth was observed after 18–20 h of incubation. In these experiments, we have tested the effect of the peptides on E. coli (ATCC 25922) and Staphylococcus aureus (ATCC 6538P) as representatives of both Gram-negative and Gram-positive bacteria, respectively.", "units": {"MIC E. coli (ATCC 25922)": "µM"}, "values": [{"substance": "LALALALALALALALALALK-NH2 [L(AL)9K]", "MIC E. coli (ATCC 25922)": ">100"}]}, {"system": "E. coli (ATCC 25922)", "experiment": "not given", "type": "cell-based", "conditions": "ATCC 25922", "experimental": "as §1", "units": {"MIC E. coli (ATCC 25922)": "µM"}, "values": [{"substance": "ALALALALALALALALALKK-NH2 [(AL)9K2]", "MIC E. coli (ATCC 25922)": ">100"}, {"substance": "KALALALALALALALALALK-NH2 [K(AL)9K]", "MIC E. coli (ATCC 25922)": ">100"}, {"substance": "KALALALKALALKALALALK-NH2 [K(AL)3K(AL)2K(AL)3K]", "MIC E. coli (ATCC 25922)": 25}, {"substance": "KKALALALALALAKK-NH2 [K2(AL)5AK2]", "MIC E. coli (ATCC 25922)": ">100"}, {"substance": "KKALALALALALALALALKK-NH2 [K2(AL)8K2]", "MIC E. coli (ATCC 25922)": ">100"}, {"substance": "KKALALALKK-NH2 [K2(AL)3K2]", "MIC E. coli (ATCC 25922)": ">100"}, {"substance": "KKAVAVAVAVAVAVAVAVKK-NH2 [K2(AV)8K2]", "MIC E. coli (ATCC 25922)": ">100"}]}, {"system": "C57BL/6 mice", "experiment": "In vivo toxicity, i.p. injection", "conditions": "100 mg/kg i.p. in 400 μL saline, highest dose tested, female C57BL/6 mice, n = 2, observed 7 days", "experimental": "Toxicity was tested by i.p. injection of K2(AL)8K2 (100 mg/kg in 400 μL saline) in female C57BL/6 mice (n = 2). Mice were continuously observed for 1 h immediately following injection and once per day for 7 days. To examine the effect of our peptide on acute septic shock driven by LPS hyper-activation of TLR4, we have used murine models as described before.[55],[56] Briefly, 12 weeks old C57BL/6 female mice were treated with 100 ng of LPS injected i.p. in a saline solution (200 μL, pH 6.5) containing 200 mg/mL of D-galactosamine (Calbiochem). Treated mice received one i.p. injection of 10 mg/kg peptide dissolved in saline (200 μL) followed by an injection of LPS. In the second model, heat-killed bacteria were used to induce a lethal septic shock. E. coli cells were grown to a mid-log phase (optical density = 0.5) at 37 °C, cooled on ice, and centrifuged at 1200g for 10 min at 4 °C. The cells were resuspended in saline for a concentration of 2 × 10^9 cells in 200 μL and heated at 95 °C for 30 min. Each animal received an i.p. injection of 2 × 10^9 cells in 200 μL saline followed by an injection of 10 mg/kg peptide dissolved in saline (200 μL). Animals were monitored for survival and signs of sepsis for the next 14 days after LPS injection. For LPS-driven septic shock, n = 8. For heat-killed bacteria, n = 11. […]", "values": [{"substance": "KKALALALALALALALALKK-NH2 [K2(AL)8K2]", "toxicity in vivo": "no lasting adverse effects were observed"}]}, {"system": "S. aureus (ATCC 6538P)", "experiment": "not given", "type": "cell-based, Staphylococcus aureus", "conditions": "not given", "experimental": "as §1", "units": {"MIC S. aureus (ATCC 6538P)": "µM"}, "values": [{"substance": "ALALALALALALALALALKK-NH2 [(AL)9K2]", "MIC S. aureus (ATCC 6538P)": ">100"}, {"substance": "KALALALALALALALALALK-NH2 [K(AL)9K]", "MIC S. aureus (ATCC 6538P)": ">100"}, {"substance": "KALALALKALALKALALALK-NH2 [K(AL)3K(AL)2K(AL)3K]", "MIC S. aureus (ATCC 6538P)": 12.5}, {"substance": "KKALALALALALAKK-NH2 [K2(AL)5AK2]", "MIC S. aureus (ATCC 6538P)": ">100"}, {"substance": "KKALALALALALALALALKK-NH2 [K2(AL)8K2]", "MIC S. aureus (ATCC 6538P)": ">100"}, {"substance": "KKALALALKK-NH2 [K2(AL)3K2]", "MIC S. aureus (ATCC 6538P)": ">100"}, {"substance": "KKAVAVAVAVAVAVAVAVKK-NH2 [K2(AV)8K2]", "MIC S. aureus (ATCC 6538P)": ">100"}]}, {"system": "S. aureus (ATCC 6538P)", "experiment": "not given", "type": "cell-based, Staphylococcus aureus", "conditions": "100% inhibition of growth, by eye, after 18–20 h at 37 °C, LB medium, peptide 100–0.78 μM", "experimental": "as §1", "units": {"MIC S. aureus (ATCC 6538P)": "µM"}, "values": [{"substance": "LALALALALALALALALALK-NH2 [L(AL)9K]", "MIC S. aureus (ATCC 6538P)": ">100"}]}, {"system": "RAW264.7 murine macrophages", "experiment": "not given", "type": "cell-based", "conditions": "not given", "experimental": "(§2) All in vitro assays were performed on RAW264.7 murine macrophages (ATCC TIB-71). Cells were grown in Dulbecco’s modified eagle medium (DMEM) supplemented with 10% fetal bovine serum (FBS), L-glutamine, sodium pyruvate, nonessential amino acids, and antibiotics (Biological Industries, Beit Haemek, Israel). The incubator was set on 37 °C with a humidified atmosphere containing 5% CO2.\n(§3) One ×10^4 cells per well were grown overnight on a 96-well plate at 37 °C with a humidified atmosphere containing 5% CO2. The following day, the media were replaced with 90 μL fresh culture medium and 10 μL solution buffer containing different concentrations of the different peptides. Peptides were serially diluted in culture medium to concentration ranging from 100 to 0.78 μM. The cells were then incubated for 2 h before adding to each well 50 μL of […] (XTT) reaction solution (Biological Industries). Cell viability was determined as described previously.[52],[54] The LC50 (the concentration at which 50% of the cells die) for each peptide was obtained from the dose-dependent cell viability curves.", "values": [{"substance": "ALALALALALALALALALKK-NH2 [(AL)9K2]", "toxicity to macrophages": "no"}, {"substance": "KALALALALALALALALALK-NH2 [K(AL)9K]", "toxicity to macrophages": "no"}, {"substance": "KKALALALALALAKK-NH2 [K2(AL)5AK2]", "toxicity to macrophages": "no"}, {"substance": "KKALALALALALALALALKK-NH2 [K2(AL)8K2]", "toxicity to macrophages": "no"}, {"substance": "KKALALALKK-NH2 [K2(AL)3K2]", "toxicity to macrophages": "no"}]}, {"system": "RAW264.7 murine macrophages", "experiment": "not given", "type": "cell-based", "conditions": "2 h", "experimental": "as §2, §3", "units": {"LC50 macrophages RAW 264.7": "µM"}, "values": [{"substance": "ALALALALALALALALALKK-NH2 [(AL)9K2]", "LC50 macrophages RAW 264.7": ">100"}, {"substance": "KALALALALALALALALALK-NH2 [K(AL)9K]", "LC50 macrophages RAW 264.7": ">100"}, {"substance": "KKALALALALALAKK-NH2 [K2(AL)5AK2]", "LC50 macrophages RAW 264.7": ">100"}, {"substance": "KKALALALALALALALALKK-NH2 [K2(AL)8K2]", "LC50 macrophages RAW 264.7": ">100"}, {"substance": "KKALALALKK-NH2 [K2(AL)3K2]", "LC50 macrophages RAW 264.7": ">100"}, {"substance": "KKAVAVAVAVAVAVAVAVKK-NH2 [K2(AV)8K2]", "LC50 macrophages RAW 264.7": 90}]}, {"system": "RAW264.7 murine macrophages", "experiment": "not given", "type": "cell-based", "conditions": "RAW264.7", "experimental": "as §2, §3", "values": [{"substance": "KALALALKALALKALALALK-NH2 [K(AL)3K(AL)2K(AL)3K]", "cytotoxicity": "moderate toxicity"}]}, {"system": "RAW264.7 murine macrophages", "experiment": "not given", "type": "cell-based", "conditions": "XTT, cells incubated 2 h with peptide, 100 to 0.78 μM", "experimental": "as §2, §3", "units": {"LC50 macrophages RAW 264.7": "µM"}, "values": [{"substance": "KALALALKALALKALALALK-NH2 [K(AL)3K(AL)2K(AL)3K]", "LC50 macrophages RAW 264.7": 25}, {"substance": "LALALALALALALALALALK-NH2 [L(AL)9K]", "LC50 macrophages RAW 264.7": ">100"}]}, {"system": "RAW264.7 murine macrophages", "experiment": "not given", "type": "cell-based", "conditions": "summary table, yes/no", "experimental": "as §2, §3", "values": [{"substance": "KALALALKALALKALALALK-NH2 [K(AL)3K(AL)2K(AL)3K]", "toxicity to macrophages": "yes"}, {"substance": "LALALALALALALALALALK-NH2 [L(AL)9K]", "toxicity to macrophages": "no"}]}]}
